Among the test systems are IGROV1 ovarian; UO-31 renal; SK-MEL-28 melanoma; NCI-H460 lung; 786-0 renal; MOLT-4 leukemia; MALME-3M melanoma; SF-295 CNS; ACHN renal; SR leukemia.
Experiment in all cases: NCI tumour cell line growth inhibition, 48 h

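Briefly, cells in 96-well plates were exposed to five compound concentrations for 48 h, and endpoints were estimated by linear interpolation. Definition used: TGI = concentration required for complete inhibition of growth.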

On to `CN(C)CCC1(C2=CCCC2)CC/C(=C\c2ccccc2)C1=O` (configuration not stated), for which the TGI with IGROV1 ovarian was 29.8 µM; in the test on UO-31 renal it was 30.7 µM; in the test with SK-MEL-28 melanoma, 38 µM; in the test with NCI-H460 lung it was 31.3 µM; with 786-0 renal, 27.8 µM; in the test with MOLT-4 leukemia, 39 µM. Further, the TGI in the test on MALME-3M melanoma was 31.7 µM; in the test with SF-295 CNS, 33.6 µM; in the test on ACHN renal, 28.6 µM; in the test on SR leukemia it was more than 100 µM.

As to `CC1=NN(C(=O)Cc2ccccc2)C(=O)/C1=C\c1ccco1`, the TGI with UO-31 renal, in the test on SK-MEL-28 melanoma, in the test on 786-0 renal, in the test with MOLT-4 leukemia, in the test on MALME-3M melanoma and in the test on SF-295 CNS was more than 100 µM in each case. The TGI in the test on ACHN renal and with SR leukemia was more than 100 µM throughout.

As for `COc1ccc([C@@H]2CC(=O)NCCCCNCCCN2)cc1`, the TGI in the test with IGROV1 ovarian, in the test with UO-31 renal, in the test on SK-MEL-28 melanoma, with NCI-H460 lung, in the test with 786-0 renal and in the test on MOLT-4 leukemia was more than 100 µM in each case. Besides, the TGI with MALME-3M melanoma, in the test with SF-295 CNS, in the test with ACHN renal and in the test with SR leukemia was more than 100 µM each time.

As for `BrC12c3ccccc3Sc3ccccc3C1(Br)c1ccccc12` (configuration not stated), the TGI in the test on IGROV1 ovarian was more than 100 µM; with UO-31 renal, more than 100 µM; in the test on NCI-H460 lung it was more than 100 µM; with 786-0 renal, more than 100 µM; in the test on MOLT-4 leukemia it was 35.8 µM; with MALME-3M melanoma, more than 100 µM. Moreover, the TGI was 61.4 µM in the test with SF-295 CNS, more than 100 µM in the test on ACHN renal and 41.4 µM with SR leukemia.

For the compound `CCOC(=O)/C=C/c1ccccn1`, the TGI with IGROV1 ovarian, with UO-31 renal, in the test on SK-MEL-28 melanoma, in the test on NCI-H460 lung, in the test with 786-0 renal and in the test with MOLT-4 leukemia was more than 100 µM each time. The TGI with MALME-3M melanoma, with SF-295 CNS, with ACHN renal and with SR leukemia was more than 100 µM in each case.

Consider `CC(=O)NC(CCCCNC(=O)N(C)N=O)C(=O)NCc1ccccc1` (configuration not stated), for which the TGI with IGROV1 ovarian, with UO-31 renal, in the test on SK-MEL-28 melanoma, in the test on NCI-H460 lung, in the test with 786-0 renal and with MOLT-4 leukemia was more than 100 µM in each case. The TGI in the test on MALME-3M melanoma, with SF-295 CNS and in the test with ACHN renal was more than 100 µM each time.

In the case of `N#Cc1c2nc3ccccc3nc2n2ccc3ccccc3c12`, the TGI in the test on IGROV1 ovarian, with UO-31 renal, with SK-MEL-28 melanoma, in the test on NCI-H460 lung, in the test with 786-0 renal and in the test with MOLT-4 leukemia was more than 100 µM each time. In addition, the TGI with MALME-3M melanoma, in the test on SF-295 CNS and in the test with ACHN renal was more than 100 µM each time.

On to `Cc1cc(C#N)c(Nc2c(C)cccc2[N+](=O)[O-])s1`, for which the TGI is more than 100 µM with UO-31 renal; more than 100 µM with SK-MEL-28 melanoma; more than 100 µM in the test on NCI-H460 lung; 89.9 µM in the test with 786-0 renal; more than 100 µM with MOLT-4 leukemia; 89.3 µM in the test on MALME-3M melanoma. For the same compound, the TGI with SF-295 CNS, in the test on ACHN renal and in the test with SR leukemia was more than 100 µM each time.

As for `COC(=O)NN1C(C)=C(C(=O)OC)C2(CCOC2=O)C1(C)O` (configuration not stated), the TGI in the test on IGROV1 ovarian, in the test on UO-31 renal, with SK-MEL-28 melanoma, in the test with NCI-H460 lung, with 786-0 renal and with MOLT-4 leukemia was more than 100 µM in each case. The TGI with MALME-3M melanoma, with SF-295 CNS and with ACHN renal was more than 100 µM in each case.

Consider `Cc1ccc(C2=C(c3ccccc3)C(O)(c3ccc(C)cc3)C(c3ccccc3)=C2c2ccc(C)cc2)cc1`, for which the TGI in the test with IGROV1 ovarian, in the test on SK-MEL-28 melanoma, in the test with NCI-H460 lung, with 786-0 renal, in the test with MOLT-4 leukemia and in the test with MALME-3M melanoma was more than 100 µM throughout. Also, the TGI with SF-295 CNS and in the test on ACHN renal was more than 100 µM in each case.

As to `S=C(Nc1ccccc1)N1N=C2c3ccccc3CC[C@H]2[C@@H]1c1ccccc1`, the TGI in the test on IGROV1 ovarian, with UO-31 renal, in the test with SK-MEL-28 melanoma, in the test on NCI-H460 lung, in the test on 786-0 renal and with MOLT-4 leukemia was more than 100 µM in each case. In addition, the values for the TGI with MALME-3M melanoma, in the test on ACHN renal and in the test with SR leukemia were more than 100 µM, more than 100 µM and 1.96 µM, respectively.

`O=c1/c(=C/c2ccc3c(c2)OCO3)sc2nnc(-c3ccco3)n12`: the TGI with IGROV1 ovarian, with UO-31 renal, in the test with SK-MEL-28 melanoma, in the test with NCI-H460 lung, in the test with 786-0 renal and with MOLT-4 leukemia was more than 100 µM each time. The TGI in the test on MALME-3M melanoma, in the test on SF-295 CNS and in the test with ACHN renal was more than 100 µM throughout.

Take `c1ccc(C2N3CCCCC3[C@@H]3c4[nH]c5ccccc5c4CCN23)cc1` (some centres not stated): the TGI in the test on IGROV1 ovarian is more than 100 µM; with UO-31 renal, more than 100 µM; in the test with SK-MEL-28 melanoma, 70.2 µM; with NCI-H460 lung, more than 100 µM; in the test with 786-0 renal, more than 100 µM; in the test with MOLT-4 leukemia, more than 100 µM. Moreover, the TGI in the test on MALME-3M melanoma, with SF-295 CNS and in the test with ACHN renal was more than 100 µM in each case.

On to `Cc1cc(NCCCCCCNc2cc(C)nc3ccc(Cl)cc23)c2cc(Cl)ccc2n1`, for which the TGI is 62.2 µM with UO-31 renal; 32 µM in the test on SK-MEL-28 melanoma; 29.8 µM in the test with NCI-H460 lung; 32 µM in the test with 786-0 renal; more than 100 µM with MOLT-4 leukemia; 75.6 µM in the test on MALME-3M melanoma. Besides, the TGI with SF-295 CNS was 31.2 µM; in the test with ACHN renal, more than 100 µM; in the test on SR leukemia, more than 100 µM.

On to `O=C(Nc1c(Cl)cc([N+](=O)[O-])cc1Cl)/C(=N\Nc1cccc(Cl)c1)c1c(O)c2ccccc2oc1=O`, for which the TGI with IGROV1 ovarian was more than 100 µM; in the test on UO-31 renal it was 78.1 µM; in the test with SK-MEL-28 melanoma, more than 100 µM; in the test with NCI-H460 lung, more than 100 µM; in the test on 786-0 renal, more than 100 µM; in the test with MOLT-4 leukemia it was more than 100 µM. In addition, the TGI in the test with MALME-3M melanoma, in the test with SF-295 CNS, in the test with ACHN renal and with SR leukemia was more than 100 µM in each case.
